Measured values taken from article PMC3119659, “Ligand Activation of the Prokaryotic Pentameric Ligand-Gated Ion Channel ELIC” (PLoS Biology, 2011).
Entries after “also recorded” stand apart in the source; their conditions may differ. Read-outs that look alike come from different tables or passages of the source.

Experiments:
[1] = target: T1, ELIC (Dickeya chrysanthemi, UniProt P0C7B7); assay: cell-based; assay type: cell-based, Erwinia chrysanthemi
T1 construct: expressed in transfected cells; host or cells: Xenopus laevis oocytes (cRNA injection, pTLN vector)
Excerpt: To identify ligands that activate ELIC we have expressed the protein in Xenopus laevis oocytes and investigated the response to potential agonists by the two-electrode voltage-clamp technique. Based on the volume and chemical properties of the proposed ligand binding region and the presence of positively charged ions bound to this site, we reasoned that parts of the agonists might have a cationic character. […] Our library included different natural products such as amino acids and their derivatives, metabolites, and related synthetic substances (Figure S3A).
Constructs containing the gene of either the WT channel or point mutants preceded by the signal sequence of the chicken α7nAchR were cloned into the pTLN vector for expression in X. laevis oocytes. After linearization of the plasmid DNA by MluI, capped complementary RNA was transcribed with the mMessage mMachine kit (Ambion) and purified with the RNeasy kit (Qiagen). For expression, 1–50 ng of RNA was injected into defolliculated oocytes. Two-electrode voltage clamp measurements were performed one day after injection at 20°C (OC-725B, Warner Instrument Corp.). […] Cysteamine containing solutions were supplemented with 1 mM DTT.

[2] = target: T2, ELIC F19A (Dickeya chrysanthemi, UniProt P0C7B7, F19A); assay: Two-electrode voltage clamp of ELIC point mutant F19A in oocytes; assay type: cell-based, Erwinia chrysanthemi; conditions: read-out: EC50 of activation
T2 construct: expressed in transfected cells; host or cells: Xenopus laevis oocytes (cRNA injection, pTLN vector)
Excerpt: (§1) To investigate the role of residues surrounding the bound ligand for channel activation, we have mutated single residues to alanine and we have measured activation with the two-electrode voltage-clamp technique (Table 2). For many mutants there was no response to the addition of cysteamine. This was the case for all investigated residues of the principal site, such as Glu77 and Glu131, that may interact with the primary amino group and hydrophobic and aromatic residues (i.e., Phe187, Phe133, Tyr174, Ile79) that surround the aliphatic carbon atoms of the ligand. The effect of mutations on the complementary side, in contrast, was diverse and in some cases less drastic. The mutations of Phe19 on β-1 and Val40 on β-2 shifted the activation towards higher agonist concentrations (Figure 4B).
(§2) Constructs containing the gene of either the WT channel or point mutants preceded by the signal sequence of the chicken α7nAchR were cloned into the pTLN vector for expression in X. laevis oocytes. After linearization of the plasmid DNA by MluI, capped complementary RNA was transcribed with the mMessage mMachine kit (Ambion) and purified with the RNeasy kit (Qiagen). For expression, 1–50 ng of RNA was injected into defolliculated oocytes. […] Currents were recorded in bath solutions containing 10 mM HEPES (pH 7), 130 mM NaCl, and the respective ligands. […]

[3] = target: T1, ELIC; assay: Patch clamp of excised outside-out patches, fast solution exchange (activation and deactivation kinetics); assay type: cell-based, Erwinia chrysanthemi; conditions: -60 mV, n = 19, errors s.d., upper limit
Description: We have thus used this molecule as an agonist in most subsequent experiments. […] Stable currents over a period of seconds were obtained upon addition of high micromolar concentrations of cysteamine to the extracellular medium (Figure 3A). At longer incubations with the ligand, however, the currents decayed, which is indicative for a slow desensitization of the channel (Figure S4A). […] To follow the time-course of activation and deactivation, we have investigated excised outside-out patches in response to fast solution exchange. A similar phenotype of currents as previously seen in two-electrode voltage clamp recordings, although with faster kinetics of desensitization, was also observed for macroscopic currents in a patch clamp experiment (Figure 3B, Figure S4B). At 5 mM cysteamine, channel activation and deactivation can be approximated by exponential functions with time constants in the ms range (τact = 20±5 ms, n = 19, τdeact = 53±7 ms, n = 19, all errors are s.d.). […]
Membrane patches of X. laevis oocytes were recorded in the excised outside-out configuration 2–3 d after injection of mRNA with an Axopatch 200B amplifier (Axon Instruments) at 20°C. Data were sampled at 100 µs, filtered with 1,000 Hz, and analyzed using Clampfit (Axon Instruments, Inc.). […]

[4] = target: T3, ELIC R91A (Dickeya chrysanthemi, UniProt P0C7B7, R91A); assay: Two-electrode voltage clamp of ELIC point mutant R91A in oocytes; assay type: cell-based, Erwinia chrysanthemi; conditions: for n (Hill coefficient) / EC50: mutant R91A; for fold decrease of the EC50: mutant R91A compared with WT; for EC50: read-out: EC50 of activation
T3 construct: expressed in transfected cells; host or cells: Xenopus laevis oocytes (cRNA injection, pTLN vector)
Excerpt: as §1
(§3) Constructs containing the gene of either the WT channel or point mutants preceded by the signal sequence of the chicken α7nAchR were cloned into the pTLN vector for expression in X. laevis oocytes. After linearization of the plasmid DNA by MluI, capped complementary RNA was transcribed with the mMessage mMachine kit (Ambion) and purified with the RNeasy kit (Qiagen). For expression, 1–50 ng of RNA was injected into defolliculated oocytes. Two-electrode voltage clamp measurements were performed one day after injection at 20°C (OC-725B, Warner Instrument Corp.). Currents were recorded in bath solutions containing 10 mM HEPES (pH 7), 130 mM NaCl, and the respective ligands. Cysteamine containing solutions were supplemented with 1 mM DTT.

[5] = target: T4, ELIC Glu77 mutated to alanine (Dickeya chrysanthemi, UniProt P0C7B7, E77A); assay: Two-electrode voltage clamp of ELIC Glu77 alanine mutant; assay type: cell-based, Erwinia chrysanthemi
T4 construct: expressed in transfected cells; host or cells: Xenopus laevis oocytes (cRNA injection, pTLN vector)
Excerpt: as §1, §2

[6] = target: T5, ELIC V40A (Dickeya chrysanthemi, UniProt P0C7B7, V40A); assay: Two-electrode voltage clamp of ELIC point mutant V40A in oocytes; assay type: cell-based, Erwinia chrysanthemi; conditions: for EC50: read-out: EC50 of activation
T5 construct: expressed in transfected cells; host or cells: Xenopus laevis oocytes (cRNA injection, pTLN vector)
Excerpt: as §1, §3

[7] = target: T6, ELIC Asn103 mutated to alanine (Dickeya chrysanthemi, UniProt P0C7B7, N103A); assay: Two-electrode voltage clamp of ELIC Asn103 alanine mutant; assay type: cell-based, Erwinia chrysanthemi
T6 construct: expressed in transfected cells; host or cells: Xenopus laevis oocytes (cRNA injection, pTLN vector)
Excerpt: as §1, §2

[8] = target: T7, ELIC Phe133 mutated to alanine (Dickeya chrysanthemi, UniProt P0C7B7, F133A); assay: Two-electrode voltage clamp of ELIC Phe133 alanine mutant; assay type: cell-based, Erwinia chrysanthemi
T7 construct: expressed in transfected cells; host or cells: Xenopus laevis oocytes (cRNA injection, pTLN vector)
Excerpt: as §1, §2

[9] = target: T8, ELIC Tyr174 mutated to alanine (Dickeya chrysanthemi, UniProt P0C7B7, Y174A); assay: Two-electrode voltage clamp of ELIC Tyr174 alanine mutant; assay type: cell-based, Erwinia chrysanthemi
T8 construct: expressed in transfected cells; host or cells: Xenopus laevis oocytes (cRNA injection, pTLN vector)
Excerpt: as §1, §2

[10] = target: T9, ELIC Phe187 mutated to alanine (Dickeya chrysanthemi, UniProt P0C7B7, F187A); assay: Two-electrode voltage clamp of ELIC Phe187 alanine mutant; assay type: cell-based, Erwinia chrysanthemi
T9 construct: expressed in transfected cells; host or cells: Xenopus laevis oocytes (cRNA injection, pTLN vector)
Excerpt: as §1, §2

[11] = target: T10, ELIC Ile79 mutated to alanine (Dickeya chrysanthemi, UniProt P0C7B7, I79A); assay: Two-electrode voltage clamp of ELIC Ile79 alanine mutant; assay type: cell-based, Erwinia chrysanthemi
T10 construct: expressed in transfected cells; host or cells: Xenopus laevis oocytes (cRNA injection, pTLN vector)
Excerpt: as §1, §2

[12] = target: T11, ELIC F246A (Dickeya chrysanthemi, UniProt P0C7B7, F246A); assay: Two-electrode voltage clamp of ELIC pore mutant F246A in oocytes; assay type: cell-based, Erwinia chrysanthemi
T11 construct: expressed in transfected cells; host or cells: Xenopus laevis oocytes (cRNA injection, pTLN vector)
Excerpt: In contrast to the extracellular domain, the pore of ELIC resembles cation selective members of the family that include nAChRs, serotonin receptors, and the prokaryotic channel GLIC (Figure S1G). In cation selective pLGICs, three layers of hydrophobic side-chains provide an overall apolar character to the extracellular half of the pore region while the following two layers of polar residues and a layer of negatively charged residues render the intracellular half hydrophilic,[30]. […] To investigate the role of this aromatic group for channel opening, we have mutated it to alanine and studied the mutant by X-ray crystallography and electrophysiology. […] This shift is due to a mutation of a residue located remote from the ligand binding site and thus likely reflects a decreased efficacy of the channel.
as §2

[13] = target: T12, ELIC Glu131 mutated to alanine (Dickeya chrysanthemi, UniProt P0C7B7, E131A); assay: Two-electrode voltage clamp of ELIC Glu131 alanine mutant; assay type: cell-based, Erwinia chrysanthemi
T12 construct: expressed in transfected cells; host or cells: Xenopus laevis oocytes (cRNA injection, pTLN vector)
Excerpt: as §1, §2

[14] = Protonation of the sulfhydryl group of cysteamine; assay type: physicochemical; conditions: at the pH of the recording solution
[15] = WT, pH 7.0, two-electrode voltage clamp, -60 mV, fit to Hill equation, read-out: EC50 of activation of ELIC
[16] = ligand added to the extracellular solution, 10 mM, -60 mV, compared with 2 mM cysteamine
[17] = pH 7.0, averages and s.d. of six measurements
[18] = WT, pH 8.0, two-electrode voltage clamp, -60 mV, read-out: EC50 of activation of ELIC
[19] = pH 9.0, averages and s.d. of six measurements

T1 sequence (P0C7B7 whole entry): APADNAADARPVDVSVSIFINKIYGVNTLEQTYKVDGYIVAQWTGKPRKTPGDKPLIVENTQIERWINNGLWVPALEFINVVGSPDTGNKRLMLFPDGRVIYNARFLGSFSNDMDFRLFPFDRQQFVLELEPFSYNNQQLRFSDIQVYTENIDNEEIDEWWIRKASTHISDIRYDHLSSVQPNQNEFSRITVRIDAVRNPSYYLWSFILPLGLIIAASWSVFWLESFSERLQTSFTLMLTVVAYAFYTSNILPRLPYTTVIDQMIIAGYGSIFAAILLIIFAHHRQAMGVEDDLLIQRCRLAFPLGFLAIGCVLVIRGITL
T3 sequence (P0C7B7 whole entry R91A): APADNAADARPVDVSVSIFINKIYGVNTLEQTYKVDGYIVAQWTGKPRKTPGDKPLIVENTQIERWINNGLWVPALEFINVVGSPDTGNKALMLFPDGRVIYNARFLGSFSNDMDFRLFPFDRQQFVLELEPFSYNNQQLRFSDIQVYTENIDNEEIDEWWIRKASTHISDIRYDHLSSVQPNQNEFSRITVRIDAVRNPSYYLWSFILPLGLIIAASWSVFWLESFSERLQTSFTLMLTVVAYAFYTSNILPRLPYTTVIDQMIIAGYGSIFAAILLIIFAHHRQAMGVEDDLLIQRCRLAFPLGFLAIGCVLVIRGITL
T5 sequence (P0C7B7 whole entry V40A): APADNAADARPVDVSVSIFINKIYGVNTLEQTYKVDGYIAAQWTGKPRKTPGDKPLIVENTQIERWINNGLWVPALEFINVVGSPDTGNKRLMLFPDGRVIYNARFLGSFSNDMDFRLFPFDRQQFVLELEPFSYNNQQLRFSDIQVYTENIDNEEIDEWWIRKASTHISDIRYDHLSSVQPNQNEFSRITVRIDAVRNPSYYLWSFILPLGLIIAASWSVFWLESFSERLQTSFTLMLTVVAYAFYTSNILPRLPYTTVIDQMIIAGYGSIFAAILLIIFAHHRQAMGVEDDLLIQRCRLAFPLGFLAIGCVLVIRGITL
T11 sequence (P0C7B7 whole entry F246A): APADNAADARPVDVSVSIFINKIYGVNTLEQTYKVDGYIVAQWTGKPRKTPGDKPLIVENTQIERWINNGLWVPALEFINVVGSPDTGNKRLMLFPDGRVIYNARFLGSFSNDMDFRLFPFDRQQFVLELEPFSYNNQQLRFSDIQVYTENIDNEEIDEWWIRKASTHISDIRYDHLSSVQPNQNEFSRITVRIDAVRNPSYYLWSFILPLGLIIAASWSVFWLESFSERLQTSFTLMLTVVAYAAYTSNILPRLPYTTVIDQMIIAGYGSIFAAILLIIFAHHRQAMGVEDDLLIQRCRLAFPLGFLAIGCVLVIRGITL
T12 sequence (P0C7B7 whole entry E131A): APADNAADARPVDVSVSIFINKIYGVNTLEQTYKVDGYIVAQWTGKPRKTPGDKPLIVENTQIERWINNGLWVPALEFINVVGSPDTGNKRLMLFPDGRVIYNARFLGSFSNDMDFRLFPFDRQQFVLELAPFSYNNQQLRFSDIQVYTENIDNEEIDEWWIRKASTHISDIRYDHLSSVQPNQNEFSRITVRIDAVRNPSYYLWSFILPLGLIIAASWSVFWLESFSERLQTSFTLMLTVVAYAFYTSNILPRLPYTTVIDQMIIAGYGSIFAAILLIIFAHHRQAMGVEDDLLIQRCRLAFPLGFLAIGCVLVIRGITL
T7 sequence (P0C7B7 whole entry F133A): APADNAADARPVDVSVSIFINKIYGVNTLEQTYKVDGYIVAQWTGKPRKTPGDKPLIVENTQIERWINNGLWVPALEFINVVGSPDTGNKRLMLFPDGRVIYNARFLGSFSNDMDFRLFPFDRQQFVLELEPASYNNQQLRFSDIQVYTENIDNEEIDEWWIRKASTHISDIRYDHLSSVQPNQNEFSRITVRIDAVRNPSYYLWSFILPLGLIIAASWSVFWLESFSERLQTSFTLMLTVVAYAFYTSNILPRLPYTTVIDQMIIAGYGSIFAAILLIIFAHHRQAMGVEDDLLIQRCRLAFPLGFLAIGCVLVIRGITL
T4 sequence (P0C7B7 whole entry E77A): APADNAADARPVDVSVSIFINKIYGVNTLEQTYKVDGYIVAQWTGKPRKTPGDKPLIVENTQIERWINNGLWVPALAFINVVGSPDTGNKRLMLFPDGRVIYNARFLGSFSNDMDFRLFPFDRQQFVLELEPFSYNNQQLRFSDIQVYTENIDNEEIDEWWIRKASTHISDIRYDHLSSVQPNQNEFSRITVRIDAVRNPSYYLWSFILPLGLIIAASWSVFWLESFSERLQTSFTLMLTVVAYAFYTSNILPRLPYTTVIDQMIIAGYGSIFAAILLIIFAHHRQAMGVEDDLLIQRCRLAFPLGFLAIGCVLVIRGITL
T9 sequence (P0C7B7 whole entry F187A): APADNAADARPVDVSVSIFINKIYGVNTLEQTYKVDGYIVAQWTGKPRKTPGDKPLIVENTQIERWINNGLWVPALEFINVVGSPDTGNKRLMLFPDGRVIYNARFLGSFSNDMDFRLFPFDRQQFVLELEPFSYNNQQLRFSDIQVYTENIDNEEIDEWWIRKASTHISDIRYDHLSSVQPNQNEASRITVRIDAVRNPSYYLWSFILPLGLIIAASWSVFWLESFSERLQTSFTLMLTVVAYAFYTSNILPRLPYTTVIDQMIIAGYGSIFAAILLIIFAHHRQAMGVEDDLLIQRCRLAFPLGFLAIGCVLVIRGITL
T10 sequence (P0C7B7 whole entry I79A): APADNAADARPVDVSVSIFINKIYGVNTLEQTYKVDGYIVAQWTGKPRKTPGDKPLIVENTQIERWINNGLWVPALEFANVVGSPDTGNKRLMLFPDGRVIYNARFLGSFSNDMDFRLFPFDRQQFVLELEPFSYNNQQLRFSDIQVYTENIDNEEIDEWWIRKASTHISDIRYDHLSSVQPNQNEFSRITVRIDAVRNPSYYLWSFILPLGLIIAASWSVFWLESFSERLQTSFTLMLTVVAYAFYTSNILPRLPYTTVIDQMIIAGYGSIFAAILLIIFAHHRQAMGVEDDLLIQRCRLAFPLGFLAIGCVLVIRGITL
T8 sequence (P0C7B7 whole entry Y174A): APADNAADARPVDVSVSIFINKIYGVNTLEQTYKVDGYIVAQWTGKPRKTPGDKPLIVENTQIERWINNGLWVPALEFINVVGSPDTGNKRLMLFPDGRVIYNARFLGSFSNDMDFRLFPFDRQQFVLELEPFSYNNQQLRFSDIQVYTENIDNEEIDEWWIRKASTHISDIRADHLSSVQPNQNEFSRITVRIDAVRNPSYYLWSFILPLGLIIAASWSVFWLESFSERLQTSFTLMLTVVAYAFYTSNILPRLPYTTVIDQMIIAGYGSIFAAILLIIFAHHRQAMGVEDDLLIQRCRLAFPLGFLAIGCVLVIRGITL
T6 sequence (P0C7B7 whole entry N103A): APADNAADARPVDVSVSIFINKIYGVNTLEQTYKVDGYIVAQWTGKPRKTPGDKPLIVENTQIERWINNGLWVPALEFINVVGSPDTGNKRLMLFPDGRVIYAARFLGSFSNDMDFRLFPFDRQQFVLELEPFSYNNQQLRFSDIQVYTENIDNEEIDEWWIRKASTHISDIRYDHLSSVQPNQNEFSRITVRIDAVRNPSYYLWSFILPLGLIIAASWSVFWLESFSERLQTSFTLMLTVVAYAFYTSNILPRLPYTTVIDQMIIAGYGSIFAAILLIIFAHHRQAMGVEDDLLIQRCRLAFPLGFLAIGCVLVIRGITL
T2 sequence (P0C7B7 whole entry F19A): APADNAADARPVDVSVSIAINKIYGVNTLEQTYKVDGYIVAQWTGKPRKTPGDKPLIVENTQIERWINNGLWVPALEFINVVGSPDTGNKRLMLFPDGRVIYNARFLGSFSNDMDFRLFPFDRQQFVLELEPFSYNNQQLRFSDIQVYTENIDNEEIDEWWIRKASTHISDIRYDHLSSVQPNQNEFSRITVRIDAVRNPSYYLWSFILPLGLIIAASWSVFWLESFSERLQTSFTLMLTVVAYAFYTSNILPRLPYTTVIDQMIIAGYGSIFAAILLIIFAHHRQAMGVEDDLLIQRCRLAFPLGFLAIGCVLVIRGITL

NCCCCN [putrescine]
EC50 [1]: 16000 µM | activating current response of ELIC to the ligand [1]: activate ELIC; also recorded: only observed at higher pH | n (Hill coefficient) ([1]; pH 8): 2.4 | n (Hill coefficient), concentration of monovalent putrescine ([1]; pH 8): 2.4 | Imax/Imax cysteamine ([1]; pH 9): 1.03±0.07

NCCCBr [bromopropylamine]
n (Hill coefficient) ([1]; WT, pH 7.0): 3.9 | EC50 [1, 15]: 1100 µM | activating current response of ELIC to the ligand [1, 16]: opening the channel | Imax/Imax cysteamine [1, 17]: 0.71±0.03

NCCN
n (Hill coefficient) ([1]; WT, pH 8.0): 3.2 | EC50 [1, 18]: 2000 µM | activating current response of ELIC to the ligand [1, 16]: activate ELIC | activating current response of ELIC to the ligand ([1]; ligand added to the extracellular solution, 10 mM, -60 mV, compared with 2 mM cysteamine, listed as aminoethane): already active at neutral conditions | Imax/Imax cysteamine [1, 19]: 1.07±0.06

diaminopropane
n (Hill coefficient) ([1]; WT, pH 8.0): 3.1 | EC50 [1, 18]: 3000 µM | Imax/Imax cysteamine [1, 19]: 1.08±0.03

CCN [Ethylamine]
activating current response of ELIC to the ligand [1, 16]: activate the channel

CC(C)N [isopropylamine]
activating current response of ELIC to the ligand [1, 16]: weak

CCCCN [butylamine]
activating current response of ELIC to the ligand [1, 16]: weak

NCCS [cysteamine]
EC50 [2]: > 10000 µM | τact, time constant of channel activation ([3]; 5 mM cysteamine): 20 ± 5 ms | τdeact, time constant of channel deactivation ([3]; washout of 5 mM cysteamine): 53 ± 7 ms | n (Hill coefficient) [4]: 2.6 | fold decrease of the EC50 [4]: 4 fold | EC50 [4]: 87 µM | response to the addition of the ligand [5]: no response | n (Hill coefficient) [6]: 2.6 | EC50 [6]: 1900 µM | response to the addition of the ligand [7]: did not show an activating response | response to the addition of the ligand [8]: no response | response to the addition of the ligand [9]: no response | response to the addition of the ligand [10]: no response | response to the addition of the ligand [11]: no response | n (Hill coefficient) ([1]; WT, pH 7.0): 2.7 | EC50 [1, 15]: 365 µM | EC50 ([1]; WT, voltage-independent activation, read-out: EC50 of activation of ELIC): 365 µM | activating current response of ELIC to the ligand [1, 16]: most efficacious; also recorded: strongest response at low ligand concentration | Imax/Imax cysteamine [1, 17]: 1 | n (Hill coefficient) [12]: 3.0 | EC50 ([12]; read-out: EC50 of activation): 2590 µM | response to the addition of the ligand [13]: no response | sulfhydryl groups protonated [14]: > 96%

aminopropanol
n (Hill coefficient) [4]: 2.45 | fold decrease of the EC50 [4]: 2 fold | EC50 [4]: 511 µM | EC50 [6]: > 10000 µM | n (Hill coefficient) ([1]; WT, pH 7.0): 3.2 | EC50 [1, 15]: 1200 µM | activating current response of ELIC to the ligand [1, 16]: strong activation | Imax/Imax cysteamine [1, 17]: 1.00±0.014
